Patent US12539279B2, “Supramolecular ionizable lipid molecules with heteroatomic tuning for nucleic acid delivery” (priority 2023, dated 2026)

Tests used:
[1] = tested on: firefly luciferase protein expression; test: Intramuscular expression profile of formulated firefly luciferase mRNA in mice (IVIS); format: in vivo, BALB/c mice; settings: intramuscular firefly luciferase mRNA-LNP
Protocol: All procedures used in animal studies conducted at the University of Toronto were approved by Institutional Animal Care and Use committee (IACUC) under protocol number 20012621 and comply with all applicable local, provincial, and federal regulations. Female BALB/c mice (7-8 weeks old) were purchased from Charles River Laboratories and acclimated for 1 to 2 weeks before initiation of the study.
Mice (n=4) were injected in both quadriceps with 0.5 μg of formulated firefly luciferase mRNA in 50 μL. At various timepoints (6 hours, 24 hours, 48 hours, and 96 hours post-dose), mice were injected intraperitoneally with 3 mg D-Luciferin (Thermo Scientific 88291) in 200 μL 1×PBS. 5 minutes later, mice were anesthetized and imaged on an in vivo imaging system (PerkinElmer, IVIS Spectrum) to measure total bioluminescent flux (photons/second) in each hindlimb (FIG. 2). The area under curve (AUC) for individual hindlimbs was determined with GraphPad Prism 9.

THP-1 monocytes = format: cell-based, human; settings: THP-1, 500 ng/well mRNA, 24 hours post-transfection
Protocol: THP-1 monocytes are human cells isolated from the peripheral blood of a patient with acute monocytic leukemia. […] Cells were plated at a density of 100,000 cells per well in a 96-well plate and transfected in quadruplicates with 500 ng/well of firefly luciferase mRNA formulated in lipid nanoparticles. Cell viability and firefly luciferase expression were determined after 24 hours with a plate reader assay, following the manufacturer's protocol (Promega E7110).

What does the source list for `CCCCCCCCCCN(CCCCCCCCCC)CCOC(=O)CCCN(CCO)CCCC(=O)OCCN(CCCCCCCCCC)CCCCCCCCCC` [Compound I-3]?
intramuscular expression (in words) [1]: higher intramuscular expression than DLin-MC3-DMA; cell viability / toxicity (THP-1 monocytes): significant cell death
